# Patent publication US6872541B2, “Method and compositions for analysis of pentraxin receptors as indicators of disease” (Coulter International Corp., priority 2001, dated 2005)
# Like-named read-outs stand apart in the source and are kept apart here.
# B1: purified human C-reactive protein (ligand)
# chain: QTDMSRKAFVFPKESDTSYVSLKAPLTKPLKAFTVCLHFYTELSSTRGYSIFSYATKRQDNEILIFWSKDIGYSFTVGGSEILFEVPEVTVAPVHICTSWESASGIVEFWVDGKPRVRKSLKKGYTVGAEASIILGQEQDSFGGNFEGSQSLVGDIGNVNMWDFVLSPDEINTIYLGGPFSPNVLNWRALKYEVQGEVFTKPQLWP
# Experiments:
# [1] = target: CRP receptor (pentraxin-binding moiety) on human monocytes and myelomonocytic cell lines (human); experiment: inhibition of bCRP (about 1 µg/mL) binding to THP-1 cells, flow cytometry, non-washed assay
# [2] = tested on: monocytes; details: cited from earlier work
# [3] = tested on: PMN; details: cited from earlier work
# [4] = tested on: lymphocytes; details: cited from earlier work
# [5] = tested on: Granulocytes (CD13+ or CD16+); details: gated by scatter and CD13+ or CD16+
# Description: (§1) Normal peripheral blood and second sample peripheral blood samples were drawn into EDTA containing tubes, unless noted, and stored at room temperature. Blood was stained within 10 hours of collection. […] In addition the removal of the plasma and red cells allowed calcium to be incorporated into the buffer system without subsequent clotting. Lysis was accomplished either by adding a volume of 3 mL of ammonium chloride (Sigma) containing EDTA (Sigma) solution to each 100 μL whole blood for 10 minutes at room temperature or by using the automated T-QPrep Workstation with the ImmunoPrep Reagent System (Coulter Corporation). The ImmunoPrep Reagent System consists of an acid lyse, followed by neutralization and fixation. The lysed blood was centrifuged, the supernatant decanted and the remaining white cell pellet resuspended in 100 μL 0.01M HEPES (Sigma)—0.15M sodium chloride containing 2% Fetal Calf Serum and 2 mM calcium chloride (Sigma), pH 7.4 (HSFC). […] At the end of this time SA-DTAF at a 1:500 dilution (3.6 μg) and 10-20 μL of the appropriate antibody or isotype combination was added for an additional 15 minutes on ice. […] Stained cells were kept on ice and analyzed within the hour. […]
# (§2) A total of six different normal blood samples were drawn, three individual donors on two separate occasions, and evaluated within 30-60 minutes of collection. […]
# [6] = tested on: T cell populations (CD4+ or CD8+); details: lymphocyte scatter
# Description: as §1, §2
# [7] = tested on: peripheral blood monocytes; experiment: flow cytometric binding of bCRP:SA-DTAF to peripheral blood monocytes; parameters: species or system human
# Description: (§3) Blood was stained within 10 hours of collection.
# This concentration was used for all subsequent staining. Freshly drawn blood was evaluated within 30 to 60 minutes of collection and examined with specific markers identifying cell populations to ensure that the receptor binding pattern was similar to that obtained up to 10 hours later.
# To ensure that enough monocytes were collected for the analysis stop counts were set to collect at least 1000 monocyte events based on forward and side scatter parameters.
# Two individual donors were evaluated each day. The concentration of SA-DTAF was kept constant at a 1:500 dilution in HSFC (3.6 μgs). Peripheral blood monocyte binding was used to determine the optimal concentration. The percent positive values were expressed relative to the 2% cursor placed on the same population stained with the bHSA negative control. The choice of a 2% negative cursor instead of the RFI was made since a subset population was suspected due to the appearance of both a positive and negative stained monocyte population.
# Single color, two or three-color staining was used along with monocyte forward and side scatter parameters to enumerate the percentage of positively stained cells. A negative staining control, bHSA:SA-DTAF was always run to establish the negative cursor placement. […] The samples were then evaluated for any differences in result due to gender, ethnic origin or age. […] No significant pattern or correlation was observed between the ages of 24 to 65 years and the binding of CRP to monocytes.
# [8] = tested on: MOLT-4 cells; details: washed assay
# Description: (§5) After 30 minutes on ice the exposed cells were either washed with 3 mL cold HFCS, centrifuged at 500×g for 3 minutes and resuspended in 100 μL cold HSFC, or left alone to compare washed and non-washed systems. Freshly diluted SA-DTAF in HSFC, 100 μL (9 μg SA-DTAF), was then added to the tubes and incubation proceeded for another 15 minutes on ice protected from light. The stained cells were washed using 3 mL cold HSFC, centrifuged at 500×g for 3 minutes and resuspended in 1 mL cold HSFC containing 0.3% paraformaldehyde (Sigma). Flow cytometric analysis was performed immediately.
# (§6) The labeling reagent, SA-DTAF, was kept at a constant 1:200 dilution.
# (§7) Target mean channels previously determined for cell lines stained with mouse IgG1-FITC were used to maintain consistency of values. The same fluorescent settings for FITC emission (LFL1) were used for all cell lines to enable direct comparison of median fluorescent intensities. […] Since cell lines consist of a relatively uniform population of cells, a Relative Fluorescent Index (RFI) comparing the level of fluorescence to the negative control was used as a more accurate representation of binding levels. The median value for the peak fluorescence (MdX) was used in place of the mean fluorescence intensity so that any skewed population shifts would be captured. […]
# [9] = tested on: KG-1a cells; experiment: flow cytometric ligand binding assay of bCRP:SA-DTAF on cell lines; parameters: species or system human; details: washed assay
# Description: (§4) Flow cytometric analysis was performed immediately.
# [10] = tested on: U937 cells; experiment: as above; parameters: species or system human; details: washed assay
# Description: as §4
# [11] = tested on: Daudi cells; experiment: as above; parameters: species or system human; details: washed assay
# Description: as §4
# [12] = tested on: Raji cells; experiment: as above; parameters: species or system human
# Description: as §4
# [13] = tested on: NK cells (CD56+CD16+); experiment: three color flow cytometric analysis of bCRP binding in fresh peripheral blood; parameters: species or system human; details: lymphocyte scatter
# Description: as §3
# [14] = tested on: THP-1 cells
# Description: as §5, §6, §7
# [15] = tested on: HL-60 cells; experiment: flow cytometric ligand binding assay of bCRP:SA-DTAF on untreated, DMSO- or PMA-induced cells; parameters: species or system human
# Description: as §4
# HL-60 was induced towards either the granulocyte or monocyte pathway with DMSO or phorbol-12-myristate-13-acetate (PMA), respectively. To induce the myelocyte differentiation pathway of HL-60 cells into mature myelocytes or monocytes, a concentration of 1.2% DMSO (Baxter Research, Midvale, Utah) included in the media was added to 2.5×10^5 cells/mL for 6 to 14 days. Monocyte differentiation of HL60 cells was promoted by exposing 5×10^5 cells/mL to 16 nM PMA for 48-72 hours prior to harvest. Untreated cells were always harvested along with the treated cells on the day of testing. A control using the same concentration of PMA dissolution media (DMSO) was also monitored. Viability of cells was determined by trypan blue exclusion and was always greater than 95% except for PMA treated cells that consistently were at 84% due to removal of the adherent cells from the flask via scraping. Prior to staining, the cells were washed with 10 mM HEPES, 150 mM sodium chloride buffer, pH 7.4 containing 0.01% sodium azide, 2% heat-inactivated fetal calf serum and 2 mM calcium chloride (HSFC) and resuspended to 1×10^7 cells/mL.
# [16] = tested on: peripheral blood monocytes; experiment: inhibition of bCRP binding to peripheral blood monocytes; details: added before staining: 50 μgs CRP, 50 μgs SAP, 10 mM EDTA, 100 μgs PC, human IgG
# Description: Normal peripheral blood and second sample peripheral blood samples were drawn into EDTA containing tubes, unless noted, and stored at room temperature. Blood was stained within 10 hours of collection. […] In addition the removal of the plasma and red cells allowed calcium to be incorporated into the buffer system without subsequent clotting. Lysis was accomplished either by adding a volume of 3 mL of ammonium chloride (Sigma) containing EDTA (Sigma) solution to each 100 μL whole blood for 10 minutes at room temperature or by using the automated T-QPrep Workstation with the ImmunoPrep Reagent System (Coulter Corporation). The ImmunoPrep Reagent System consists of an acid lyse, followed by neutralization and fixation. The lysed blood was centrifuged, the supernatant decanted and the remaining white cell pellet resuspended in 100 μL 0.01M HEPES (Sigma)—0.15M sodium chloride containing 2% Fetal Calf Serum and 2 mM calcium chloride (Sigma), pH 7.4 (HSFC). […] At the end of this time SA-DTAF at a 1:500 dilution (3.6 μg) and 10-20 μL of the appropriate antibody or isotype combination was added for an additional 15 minutes on ice. Cells were then washed with 3 mL HSFC, centrifuged and resuspended to 1 mL in HSFC (0.3% paraformaldehyde was added to ammonium chloride-lysed cells). Stained cells were kept on ice and analyzed within the hour.
# [17] = tested on: THP-1 cells; experiment: inhibition of the binding of bCRP to THP-1 cells; parameters: species or system human; details: for effect on binding of bCRP to THP-1 cells: washed assay, 5 mM EDTA in the primary incubation, PC inclusion or exclusion from the reaction mixture
# Description: Staining proceeded using the previously determined optimal non-washed conditions. […] All other staining conditions were as previously described using bHSA as the control.
# [18] = target: isolated human peripheral blood monocytes; details: requirement for calcium, optimal pH 7.4; read-out: dissociation constant; cited from earlier work
# [19] = target: CRP receptor (pentraxin-binding moiety) on human monocytes and myelomonocytic cell lines (human); experiment: 50 µgs purified human SAP added before bCRP staining of peripheral blood monocytes, flow cytometry
# [20] = target: CRP receptor (pentraxin-binding moiety) on human monocytes and myelomonocytic cell lines (human); experiment: 50 µgs purified CRP added before bCRP staining of peripheral blood monocytes, flow cytometry
molecule,measurement,setting,value
Limulus CRP (from UniProt P06205 25-242) (ligand),IC50,[1],0.0087 nM
"aggregated CRP: aggregated CRP of a prior report (Zeller et al., 1986)",percent of cells binding,[2]; monocytes,70%
same,percent of cells binding,[3]; PMN stimulated with PMA,93%
same,percent of cells binding,[3]; resting PMN,approximately 36%
same,percent of cells binding,[4],8%
"bCRP: purified human C-reactive protein labeled with biotin, detected with streptavidin conjugated fluorescein derivative (SA-DTAF)",binding of bCRP vs negative bHSA control,[5],no binding of bCRP above that of the negative control
same,binding of bCRP vs negative bHSA control,[6],no binding of bCRP above that of the negative control
same,average percent of monocytes binding,[2]; other reports,67±12%
same,binding of bCRP,"[7]; monocyte subset, dual CD14+CD16+",bound very little bCRP
same,binding of bCRP vs negative bHSA control,"[7]; monocytes selected by scatter and CD13, CD14 or CD33",definite fluorescent signal above that of the negative control
same,normal range of CRP binding by monocytes,[7]; normal donors,49-90%
same,percentage of binding (monocytes),[7]; one-step bCRP:SA-DTAF complex,84.6%
same,"average percent positive values of bCRP binding, monocytes gated by light scatter","[7]; six freshly drawn normal donors, 30-60 minutes after collection",approximately 70%
same,percentage of binding (monocytes),[7]; two-step method with wash after primary incubation,85.8%
same,"RFI (Relative Fluorescent Index, bCRP MdX / bHSA MdX)",[8],under 0.9
same,"RFI (Relative Fluorescent Index, bCRP MdX / bHSA MdX)",[9],1.2
same,"RFI (Relative Fluorescent Index, bCRP MdX / bHSA MdX)",[10],1.3
same,"RFI (Relative Fluorescent Index, bCRP MdX / bHSA MdX)",[11],under 0.9
same,binding (in words),[12]; B cell line Raji,No binding
same,"RFI (Relative Fluorescent Index, bCRP MdX / bHSA MdX)","[12]; washed assay, Raji",under 0.9
same,binding of bCRP vs negative bHSA control,[13],no binding of bCRP above that of the negative control
same,RFI,[14]; THP-1 run at the same time as positive control for the HL-60 induction experiment,25.1
same,"RFI (Relative Fluorescent Index, bCRP MdX / bHSA MdX)","[14]; washed assay, THP-1",14.5
same,RFI,[15]; CTL: HL-60 control for PMA-treated cells (same dilution of DMSO as PMA solvent),0.7
same,RFI,[15]; DMSO-treated HL-60,1.0
same,RFI,"[15]; HL-60 treated with PMA, 48 hours (PMA-48)",1.2
same,RFI,"[15]; HL-60 treated with PMA, 72 hours (PMA-72)",1.5
same,RFI,[15]; untreated HL60,0.6
same,binding to cells,"[15]; untreated or DMSO-treated HL-60 cells, washed and no-wash systems",negative
"O=C(O)CN(CCN(CC(=O)O)CC(=O)O)CC(=O)O [EDTA, reference compound]",inhibition of bCRP binding to peripheral blood monocytes,[16],~98%
same,effect on binding of bCRP to THP-1 cells,[17],abolished
"CRP: purified human C-reactive protein, pentameric pentraxin of 206 amino acid subunits (SEQ ID NO: 2), used unlabeled as inhibitor",inhibition of bCRP binding to peripheral blood monocytes,[16],~86%
same,point at which 50% of the binding was inhibited (amount),"[17]; non-washed assay, bCRP approximately 1 μg/mL",0.72 μgs
"radiolabeled CRP: radiolabeled CRP of a prior report (Ballou et al., 1989)",Kd,[18],~100 nM
human Serum Amyloid P (from UniProt P02743 20-223) (ligand),IC50,[1],0.15 nM
same,percent inhibition,[19],77%
"CRP fragment 174-185: defined fragment of CRP, amino acid residues 174-185 of SEQ ID NO: 2 (Sigma) (IYLGGPFSPNVL; human CRP)",inhibition of bCRP binding to THP-1 cells (in words),"[17]; non-washed assay, fragment 174-185 at 100 μgs (˜128 M solution), not repeated, other fragments up to 200 μgs",appeared to suppress the reaction
"human SAP: another pentraxin, human Serum Amyloid P, >99% purity",inhibition of bCRP binding to peripheral blood monocytes,[16],~77%
"C[N+](C)(C)CCOP(=O)(O)O [PC, phosphorylcholine, reference compound]",inhibition of bCRP binding to peripheral blood monocytes,[16],~1%
same,effect on binding of bCRP to THP-1 cells,[17],no significant difference
B1,percent inhibition,[20],86%
